According to patent US4612371A, “Anthracycline antibiotics” (Sanraku Incorporated, priority 1984, dated 1986):
In brackets after ≈: the same amount, converted by molar mass.

Tests used:
[1] = tested on: mouse leukemia L1210 cells; test: Inhibition of RNA synthesis in L1210 culture cells (14C-uridine intake); format: cell-based; settings: read-out: 50% Inhibitory Concentration (IC50), Inhibition of RNA Synthesis
Protocol: (§1) L 1210 cells of 5×10^4 /ml were inoculated on, e.g., RPM 11640 medium (Rosewellberg Research Laboratories) containing 20% bovine serum and, the substances of the present invention were added thereto, respectively, in a concentration of 0.02 to 0.25 μg/ml in a similar fashion. Cultivation was performed at 37° C. in a carbon dioxide culture bottle. Then, a 50% inhibitory action against proliferation was determined based on control fraction. Further, the aforesaid L 1210 culture cell was suspended in 10% bovine serum-containing RPM 11640 medium in a concentration of 5×10^5 /ml. After cultivating at 37° C. for 1 to 2 hours in a carbon dioxide culture bottle, the substance was added in various concentrations and, ^14 C-uridine (0.05 μCi/ml) or ^14 C-thymidine (0.05 μCi/ml) was further added thereto 15 minutes after followed by culturing at 37° C. for 60 minutes. A cold 10% trichloro-acetic acid was added to the reaction solution to discontinue the reaction and at the same time, matters insoluble in the acid were precipitated. After washing further twice with cold 5% trichloroacetic acid, the insoluble matters were dissolved in formic acid and, radioactivity was measured. A 50% intake inhibitory concentration was determined from an intake rate of radioactivity, based on the control fraction to which no substance was added.

[2] = tested on: mouse leukemia L1210 cells; test: Inhibition of DNA synthesis in L1210 culture cells (14C-thymidine intake); format: cell-based; settings: read-out: 50% Inhibitory Concentration (IC50), Inhibition of DNA Synthesis
Protocol: as §1

[3] = tested on: mouse leukemia L1210 cells; test: Inhibition of proliferation of cultured mouse leukemia L1210 cells; format: cell-based
Protocol: as §1

mouse L1210 leukemia = test: In vivo anti-tumor activity against mouse L1210 leukemia; settings: day 1 to day 10, CDF1 mice, n = 6
Excerpt: Inoculation: 1 × 10^5 cell/mouse (i.p.)
Treatment: day 1 to day 10 (i.p.)

[4] = 1 h, L1210 cells 5×10^5/ml, 10% bovine serum, 14C-uridine, 60 minutes, 37° C.
[5] = 1 h, L1210 cells 5×10^5/ml, 10% bovine serum, 14C-thymidine, 60 minutes, 37° C.
[6] = L1210 cells 5×10^4/ml, 20% bovine serum, 37° C., read-out: 50% Inhibitory Concentration (IC50), Inhibition of Cell Proliferation

Compound | IC50 [1, 4] | IC50 [2, 5] | IC50 [3, 6] | other results
COC(=O)C1c2c(O)c3c(c(O)c2C(OC2CC(N)C(O)C(C)O2)CC1(O)C(C)=O)C(=O)c1c(O)cccc1C3=O (stereo not shown) [D788-9] | 2.59 µg/mL (≈ 4.53 µM) | 4.2 µg/mL (≈ 7.35 µM) | 0.22 µg/mL (≈ 0.385 µM) | 
CCC1(O)CC(OC2CC(N)C(O)C(C)O2)c2c(O)c3c(c(O)c2C1O)C(=O)c1cccc(O)c1C3=O (stereo not shown) [D788-7] | 0.68 µg/mL (≈ 1.32 µM) | 0.29 µg/mL (≈ 0.563 µM) | 0.0003 µg/mL (≈ 0.000582 µM) | Anti-tumor Effect T/C(%) (mouse L1210 leukemia; 4 μg/kg/day i.p.): 102%; Anti-tumor Effect T/C(%) (mouse L1210 leukemia; 8 μg/kg/day i.p.): 104%; Anti-tumor Effect T/C(%) (mouse L1210 leukemia; 16 μg/kg/day i.p.): 133%; Anti-tumor Effect T/C(%) (mouse L1210 leukemia; 32 μg/kg/day i.p.): 187%; Anti-tumor Effect T/C(%) (mouse L1210 leukemia; 62.5 μg/kg/day i.p.): 204%; Anti-tumor Effect T/C(%) (mouse L1210 leukemia; 125 μg/kg/day i.p.): 172%; Anti-tumor Effect T/C(%) (mouse L1210 leukemia; 250 μg/kg/day i.p.): 100%
CC(O)C1=Cc2c(O)c3c(c(O)c2[C@@H](O[C@H]2C[C@H](N)[C@H](O)[C@H](C)O2)C1)C(=O)c1c(O)cccc1C3=O (stereo partly shown) [D788-8] | 1.58 µg/mL (≈ 3.18 µM) | 3.4 µg/mL (≈ 6.83 µM) | 0.22 µg/mL (≈ 0.442 µM) | 
CC1OC(OC2CC(O)(C(C)O)C(C(=O)O)c3c(O)c4c(c(O)c32)C(=O)c2c(O)cccc2C4=O)CC(N)C1O (stereo not shown) [D788-10] | 10 µg/mL (≈ 17.9 µM) | 10 µg/mL (≈ 17.9 µM) | 0.083 µg/mL (≈ 0.148 µM) | 
CCC1(O)CC(OC2CC(N)C(O)C(C)O2)c2c(O)c3c(c(O)c2C1C(=O)OC)C(=O)c1cccc(O)c1C3=O (stereo not shown) [D788-6] |  |  |  | IC50 ([1]; L1210, 1 h): 1.3 µg/mL (≈ 2.33 µM); IC50 ([2]; L1210, 1 h): 2.6 µg/mL (≈ 4.66 µM); IC50 ([3]; L1210, read-out: 50% Inhibitory Concentration (IC50), Inhibition of Cell Proliferation): 0.25 µg/mL (≈ 0.448 µM)
